This is an account of results in US4438104A, “Endorphins having placental or pancreatic origin” (Endorphin, Inc., priority 1982, dated 1984).

One assay has as its system Balb/C mice. The assay is described as follows: Delay in tail-flick in mice from a standardized heat injury. Type of assay: in vivo. On the procedure: Using p-endorphin as prepared in Example 2 tests of the delay in tail-flick in mice from a standardized heat injury were conducted under our direction and control as follows: Inbred mice (in this case Balb/C males weighing 20 to 25 gms) were held in a special body holder in cotton and a standardized "heat-run" or lamp was held a standardized distance away from the base of the tail which was painted black with india ink to increase the amount of energy it absorbs. On the average, 3.5 seconds of this heat is enough to cause these mice to flick their tail in a vigorous fashion. This end-point is unmistakable. The standard deviation of 50 determinations of this kind is approximately 0.7 seconds. Therefore, the normal range of large numbers of these mice with multiple determinations would be about 2.2 to 4.8 seconds.
The data set forth below in Table 1 illustrate the amount of time for the onset of tail flicking by mice tested at various times after the injection of […] of p-endorphin (P-EP).

The test system of another assay is mice. The following applies: stated as known characteristic; cited from earlier work.

Regarding “beta-endorphin (YGGFMTSEKSQTPLVTLFKNAIIKNAYKKGE; Beta-endorphin; UniProt P01189 237-267, looked up) [endogenous opioid peptide hormone, 61 to 91 portion of beta lipotropin; standard]”, the delay in tail-flick result in the assay with Balb/C mice (mice) is given as “more than 10 seconds”. Also, the “amount required to obtain the same in vivo effect” value in the assay with Balb/C mice (same tail-flick effect as 30 μg P-EP preparation) was “about 0.8 nanamoles per mouse”. In the assay on mice, the Staub tail entry is listed as “characteristic”.
